Results reported in PubChem BioAssay (NCI).
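Following 48 hours of exposure in 96-well plates, responses at five concentrations were used to interpolate endpoints linearly. TGI: total growth inhibition.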

Assays:
Assay in all cases: DTP human tumour cell line panel, 48 h
[1] = test system: MDA-MB-435
[2] = test system: HCT-116 colon
[3] = test system: OVCAR-8 ovarian
[4] = test system: HCC-2998 colon
[5] = test system: NCI-H226 lung
[6] = test system: NCI-H23 lung
[7] = test system: SNB-19 CNS
[8] = test system: OVCAR-5 ovarian
[9] = test system: SK-MEL-28 melanoma
[10] = test system: M14 melanoma
[11] = test system: SF-268 CNS
[12] = test system: HOP-92 NSCLC
[13] = test system: PC-3 prostate
[14] = test system: UO-31 renal
[15] = test system: SF-539 CNS
[16] = test system: HL-60(TB) leukemia
[17] = test system: SK-OV-3 ovarian
[18] = test system: HT29 colon
[19] = test system: K-562 leukemia
[20] = test system: SN12C renal
[21] = test system: SK-MEL-2 melanoma
[22] = test system: 786-0 renal
[23] = test system: DU-145 prostate
[24] = test system: MALME-3M melanoma
[25] = test system: NCI/ADR-RES ovarian
[26] = test system: KM12 colon
[27] = test system: MCF7 breast
[28] = test system: UACC-62 melanoma
[29] = test system: TK-10 renal
[30] = test system: ACHN renal
[31] = test system: SW-620 colon
[32] = test system: BT-549 breast
[33] = test system: EKVX NSCLC
[34] = test system: NCI-H522 lung
[35] = test system: MDA-MB-231 breast
[36] = test system: CCRF-CEM leukemia
[37] = test system: MOLT-4 leukemia
[38] = test system: COLO 205 colon
[39] = test system: CAKI-1 renal
[40] = test system: SF-295 CNS
[41] = test system: UACC-257 melanoma
[42] = test system: IGROV1 ovarian
[43] = test system: HOP-62 NSCLC
[44] = test system: NCI-H460 lung
[45] = test system: U251 CNS
[46] = test system: MDA-N
[47] = test system: A498 renal
[48] = test system: HS 578T breast
[49] = test system: A549 NSCLC
[50] = test system: HCT-15 colon
[51] = test system: SNB-75 CNS
[52] = test system: OVCAR-3 ovarian
[53] = test system: T-47D breast
[54] = test system: LOX IMVI melanoma
[55] = test system: SK-MEL-5 melanoma
[56] = test system: RPMI-8226 leukemia
[57] = test system: OVCAR-4 ovarian

## Cn1c(=O)n(-c2c3ccccc3c(Cl)c3ccccc23)n(C(C)(C)C)c1=O
[1]
  TGI: > 100 µM
[2]
  TGI: > 100 µM
[3]
  TGI: > 100 µM
[4]
  TGI: > 100 µM
[5]
  TGI: > 100 µM
[6]
  TGI: > 100 µM
[7]
  TGI: > 100 µM
[8]
  TGI: > 100 µM
[9]
  TGI: > 100 µM
[10]
  TGI: > 100 µM
[11]
  TGI: > 100 µM
[12]
  TGI: > 100 µM
[13]
  TGI: > 100 µM
[14]
  TGI: > 100 µM
[15]
  TGI: > 100 µM
[16]
  TGI: > 100 µM
[17]
  TGI: > 100 µM
[18]
  TGI: > 100 µM
[19]
  TGI: > 100 µM
[20]
  TGI: > 100 µM
[21]
  TGI: > 100 µM
[22]
  TGI: > 100 µM
[23]
  TGI: > 100 µM
[24]
  TGI: > 100 µM
[25]
  TGI: > 100 µM
[26]
  TGI: > 100 µM
[27]
  TGI: > 100 µM
[28]
  TGI: > 100 µM
[29]
  TGI: > 100 µM
[30]
  TGI: > 100 µM
[31]
  TGI: > 100 µM
[32]
  TGI: > 100 µM
[33]
  TGI: > 100 µM
[34]
  TGI: > 100 µM
[35]
  TGI: > 100 µM
[36]
  TGI: > 100 µM
[37]
  TGI: > 100 µM
[38]
  TGI: > 100 µM
[39]
  TGI: > 100 µM
[40]
  TGI: > 100 µM
[41]
  TGI: > 100 µM
[42]
  TGI: > 100 µM
[43]
  TGI: > 100 µM
[44]
  TGI: > 100 µM
[45]
  TGI: > 100 µM
[46]
  TGI: > 100 µM
[47]
  TGI: > 100 µM
[48]
  TGI: > 100 µM
[49]
  TGI: > 100 µM
[50]
  TGI: > 100 µM
[51]
  TGI: 43.9 µM
[52]
  TGI: > 100 µM
[53]
  TGI: > 100 µM
[54]
  TGI: > 100 µM
[55]
  TGI: > 100 µM

## NC(=S)SCCC(=O)O
[1]
  TGI: > 100 µM
[2]
  TGI: > 100 µM
[3]
  TGI: > 100 µM
[4]
  TGI: > 100 µM
[5]
  TGI: > 100 µM
[6]
  TGI: > 100 µM
[7]
  TGI: > 100 µM
[8]
  TGI: > 100 µM
[9]
  TGI: > 100 µM
[10]
  TGI: > 100 µM
[11]
  TGI: > 100 µM
[12]
  TGI: > 100 µM
[13]
  TGI: > 100 µM
[14]
  TGI: > 100 µM
[15]
  TGI: > 100 µM
[16]
  TGI: > 100 µM
[17]
  TGI: > 100 µM
[18]
  TGI: > 100 µM
[19]
  TGI: > 100 µM
[20]
  TGI: > 100 µM
[21]
  TGI: > 100 µM
[22]
  TGI: > 100 µM
[23]
  TGI: > 100 µM
[24]
  TGI: > 100 µM
[56]
  TGI: > 100 µM
[25]
  TGI: > 100 µM
[26]
  TGI: > 100 µM
[27]
  TGI: > 100 µM
[28]
  TGI: > 100 µM
[29]
  TGI: > 100 µM
[30]
  TGI: > 100 µM
[31]
  TGI: > 100 µM
[32]
  TGI: > 100 µM
[33]
  TGI: > 100 µM
[34]
  TGI: > 100 µM
[35]
  TGI: > 100 µM
[36]
  TGI: > 100 µM
[37]
  TGI: > 100 µM
[38]
  TGI: > 100 µM
[39]
  TGI: > 100 µM
[40]
  TGI: > 100 µM
[41]
  TGI: > 100 µM
[57]
  TGI: > 100 µM
[42]
  TGI: > 100 µM
[43]
  TGI: > 100 µM
[44]
  TGI: > 100 µM
[45]
  TGI: > 100 µM
[46]
  TGI: > 100 µM
[47]
  TGI: > 100 µM
[48]
  TGI: > 100 µM
[49]
  TGI: > 100 µM
[50]
  TGI: > 100 µM
[51]
  TGI: > 100 µM
[52]
  TGI: > 100 µM
[53]
  TGI: > 100 µM
[54]
  TGI: > 100 µM
[55]
  TGI: > 100 µM
